Broadly, the IC50 is the concentration needed to halve the response being measured.

These results are taken from patent US8703771B2, “Preparation method of dihydroindene amide compounds, their pharmaceutical compositions containing compounds thereof and use as protein kinases inhibitor” (Harbin Gloria Pharmaceuticals Co., Ltd., priority 2008, dated 2014).

Counter-ions that a name gives are not always drawn. Like-named read-outs stand apart in the source and are kept apart here.

The target in experiment [1] is T1, c-Kit (Homo sapiens (Human), UniProt P10721). Description: Mobility Shift Assay of c-Kit kinase enzyme activity. It counts as biochemical. The following applies: ATP at Km 87 μM, 40 minutes at 28° C., pre-activated c-Kit. Here is the method:
(§1) The activity of the compounds of this invention on Abl, c-Kit and PDGFR kinases was tested by Mobility Shift Assay (MSA).
(§2) • 1. Preparation of kinase buffer and stop buffer;
(§3) The compound was dissolved in DMSO and then serial dilutions were prepared; • 3. Preparation of kinase solution: Kinase solution was obtained by dissolving kinases in the kinase buffer mentioned above. With regard to c-Kit kinase, the pre-activation treatments should be carried out as follows. 700 nM c-Kit, 2 mM ATP, 4 mM DTT and 10 mM MgCl2 were dissolved in kinase buffer. After being incubated at 28° C. for 15 minutes, the solution was added to the kinase buffer; • 4. Preparation of polypeptide solution: Polypeptide FAM and ATP were dissolved in kinase buffer; • 5. The kinase solution was transferred to a culture plate and incubated for 10 minutes at room temperature. […] The polypeptide solution was transferred to the culture plate. […] The final concentrations of MgCl2 in all circumstances were all 10 mM; • 7. The mixture in each well of the plate was incubated at 28° C., for 1 hour for Abl, 40 minutes for c-Kit and 5 hours for PDGFR. The stop buffer was then added to terminate the reaction; • 8. Data were collected in Caliper and then input into the software XLfit to calculate IC50 values.

A further experiment concerns the target PDGFR (Homo sapiens). Nature of the experiment: Mobility Shift Assay of PDGFR kinase enzyme activity. Format: biochemical. The following applies: ATP at Km 38 μM, 5 hours at 28° C. The protocol:
as §1, §2, §3

Experiment [2] concerns the target T1, c-Kit. Nature of the experiment: 33P-ATP kinase assay, c-Kit. Format: biochemical. The following applies: 33P-ATP assay; ATP concentration 30 μM; 2 mM MnCl2 in buffer. The protocol:
(§4) Inhibitory activity of the compounds of this invention on Abl, c-Kit and PDGFR mutant kinases was tested by the phosphor isotope-labelled ATP (^33P-ATP) assay. • 1. Substrate solution was prepared using newly-prepared reaction buffer. The buffer includes: 20 mM HEPES, pH 7.5, 10 mM MgCl2, 1 mM EGTA, 0.02% Brij 35, 0.02 mg/ml BSA, 0.1 mM Na3VO4, 2 mM DTT, 1% DMSO. […] Required co-enzymes were added to the above substrate solution; • 3. Kinases were added and mixed gently; • 4. The tested compound was dissolved in DMSO, and then added to the above kinase solution by using Acoustic technique (Echo550, nanoliter range) and incubated for 20 minutes; • 5. ^33P-ATP was added to the above reaction mixture to initiate the reaction; • 6. The mixture was incubated for 2 hours at room temperature; • 7. The activity of kinases was tested by filtration-combination; • 8. The data were processed in Excel and the control data were subtracted. A curve was drawn by the GraphPad Prism software to get the IC50 value.

A further experiment addresses c-Kit (D816H) (Homo sapiens (Human), UniProt P10721, D816H). Nature of the experiment: 33P-ATP kinase assay, c-Kit (D816H). It counts as biochemical. Particulars: 33P-ATP assay; ATP concentration 30 μM. Here is the method:
as §4

The target of a further experiment is c-Kit (D816V) (Homo sapiens (Human), UniProt P10721, D816V). Description: 33P-ATP kinase assay, c-Kit (D816V). The following applies: 33P-ATP assay; ATP concentration 30 μM. Format: biochemical. Here is the method: as §4
The target in a further experiment is c-Kit (T670I) (Homo sapiens (Human), UniProt P10721, T670I). Nature of the experiment: 33P-ATP kinase assay, c-Kit (T670I). Format: biochemical. The following applies: 33P-ATP assay; ATP concentration 30 μM. The protocol: as §4
The target in a further experiment is c-Kit (V560G) (Homo sapiens (Human), UniProt P10721, V560G). Nature of the experiment: 33P-ATP kinase assay, c-Kit (V560G). It counts as biochemical. Particulars: 33P-ATP assay; ATP concentration 30 μM. Here is the method: as §4
The next experiment concerns the target c-Kit (V654A) (Homo sapiens (Human), UniProt P10721, V654A). Nature of the experiment: 33P-ATP kinase assay, c-Kit (V654A). Format: biochemical. Particulars: 33P-ATP assay; ATP concentration 30 μM; 2 mM MnCl2 in buffer. The protocol: as §4
For experiment [3], the system named is chronic myeloid leukaemia cell K562. Nature of the experiment: cells. Particulars: Homo sapiens, K562, 72 h, read-out: IC50 (nM) inhibition of K562 cell growth.
The test system is the same in experiment [4]. Description: MTS growth inhibition assay, K562 cell strain. It counts as cell-based. The following applies: Homo sapiens, MTS/PMS, 72 hours. The protocol: (§5) This invention also tested the inhibitory activity of the compounds of this invention on the growth of chronic myeloid leukaemia cell K562, KU812, and MEG-01, acute myeloid leukaemia cell Kasumi-1 and acute lymphatic leukemia cell Sup-B15.
(§6) 1. Preparation of Assay Solution
(§7) (1) Preparation of PMS solution: PMS was dissolved in DPBS to give a concentration of […]. The solution was then filtered into a sterile and lightproof container;
(§8) (2) Preparation of MTS solution: a) 21 ml DPBS was added to a lightproof container; b) 42 mg MTS powder was weighted and then added to DPBS; c) the above were mixed on a electromagnetic stirrer until the powder was dissolved; d) the pH value was measured. […] If the pH was higher than 6.5, it should be adjust to 6.5 with 1 N HCl; e) the solution was filtered into a sterile and lightproof container; (3) Preparation of MTS/PMS mixture: a) 2 ml of the MTS solution was transferred to a tube; b) 100 μL of the PMS solution was added to the tube; c) the tube was vortexed gently to mix the solution thoroughly. 2. […] 3. […] 4.
(Formazan colour is commonly taken as a measure of viable cells.)

In experiment [5] the test system is chronic myeloid leukaemia cell KU812. Description: MTS growth inhibition assay, KU812 cell strain. It counts as cell-based. The following applies: MTS/PMS, 72 hours. The protocol: as §5, §6, §7, §8
Experiment [6] deals with chronic myeloid leukaemia cell MEG-01. Nature of the experiment: MTS growth inhibition assay, MEG-01 cell strain. Format: cell-based. The following applies: MTS/PMS, 72 hours. Here is the method:
as §5, §6, §7, §8

The test system of experiment [7] is acute myeloid leukaemia cell Kasumi-1. Nature of the experiment: MTS growth inhibition assay, Kasumi-1 cell strain. Format: cell-based. The following applies: Homo sapiens, MTS/PMS, 72 hours. The protocol: as §5, §6, §7, §8
Experiment [8] concerns acute lymphatic leukemia cell Sup-B15. Nature of the experiment: MTS growth inhibition assay, Sup-B15 cell strain. The following applies: MTS/PMS, 72 hours. It counts as cell-based. The protocol: as §5, §6, §7, §8
The test system of experiment [9] is chronic myeloid leukaemia cell K562. The following applies: read-out: IC50 (nM) inhibition of K562 cell growth; CellTiter-Glo; 72 hours. (Cellular ATP, detected with luciferase, serves as a proxy for viable cell number.)

Sequence of PDGFR (Homo sapiens) (P09619 33-1106 limits assumed): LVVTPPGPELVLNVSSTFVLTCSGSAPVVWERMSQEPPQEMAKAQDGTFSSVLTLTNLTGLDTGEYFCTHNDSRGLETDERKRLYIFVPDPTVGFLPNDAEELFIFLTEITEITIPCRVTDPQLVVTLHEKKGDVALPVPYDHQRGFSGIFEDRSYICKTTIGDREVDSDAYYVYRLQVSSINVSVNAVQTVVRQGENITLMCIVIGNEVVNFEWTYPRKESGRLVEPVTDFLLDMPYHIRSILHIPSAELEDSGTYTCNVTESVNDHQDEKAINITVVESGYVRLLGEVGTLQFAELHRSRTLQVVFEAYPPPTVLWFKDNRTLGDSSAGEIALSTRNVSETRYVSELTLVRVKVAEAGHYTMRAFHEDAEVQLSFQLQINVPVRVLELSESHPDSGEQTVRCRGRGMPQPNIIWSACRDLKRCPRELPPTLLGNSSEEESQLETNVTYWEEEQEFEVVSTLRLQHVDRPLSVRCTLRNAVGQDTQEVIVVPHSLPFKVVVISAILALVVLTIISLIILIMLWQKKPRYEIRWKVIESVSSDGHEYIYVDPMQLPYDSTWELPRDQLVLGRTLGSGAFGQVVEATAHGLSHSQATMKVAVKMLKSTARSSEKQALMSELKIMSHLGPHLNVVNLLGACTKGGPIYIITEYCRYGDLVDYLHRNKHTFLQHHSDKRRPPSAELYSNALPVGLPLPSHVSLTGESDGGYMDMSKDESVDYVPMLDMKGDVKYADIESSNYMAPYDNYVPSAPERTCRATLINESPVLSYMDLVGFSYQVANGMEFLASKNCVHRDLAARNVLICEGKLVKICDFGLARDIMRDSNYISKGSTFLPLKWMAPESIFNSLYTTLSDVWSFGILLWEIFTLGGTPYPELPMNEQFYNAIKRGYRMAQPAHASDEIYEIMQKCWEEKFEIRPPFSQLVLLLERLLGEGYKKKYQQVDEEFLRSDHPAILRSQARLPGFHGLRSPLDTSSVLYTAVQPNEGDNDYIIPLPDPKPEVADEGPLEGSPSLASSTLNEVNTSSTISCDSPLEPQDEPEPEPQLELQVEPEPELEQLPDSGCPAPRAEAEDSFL
T1 sequence (P10721 26-976): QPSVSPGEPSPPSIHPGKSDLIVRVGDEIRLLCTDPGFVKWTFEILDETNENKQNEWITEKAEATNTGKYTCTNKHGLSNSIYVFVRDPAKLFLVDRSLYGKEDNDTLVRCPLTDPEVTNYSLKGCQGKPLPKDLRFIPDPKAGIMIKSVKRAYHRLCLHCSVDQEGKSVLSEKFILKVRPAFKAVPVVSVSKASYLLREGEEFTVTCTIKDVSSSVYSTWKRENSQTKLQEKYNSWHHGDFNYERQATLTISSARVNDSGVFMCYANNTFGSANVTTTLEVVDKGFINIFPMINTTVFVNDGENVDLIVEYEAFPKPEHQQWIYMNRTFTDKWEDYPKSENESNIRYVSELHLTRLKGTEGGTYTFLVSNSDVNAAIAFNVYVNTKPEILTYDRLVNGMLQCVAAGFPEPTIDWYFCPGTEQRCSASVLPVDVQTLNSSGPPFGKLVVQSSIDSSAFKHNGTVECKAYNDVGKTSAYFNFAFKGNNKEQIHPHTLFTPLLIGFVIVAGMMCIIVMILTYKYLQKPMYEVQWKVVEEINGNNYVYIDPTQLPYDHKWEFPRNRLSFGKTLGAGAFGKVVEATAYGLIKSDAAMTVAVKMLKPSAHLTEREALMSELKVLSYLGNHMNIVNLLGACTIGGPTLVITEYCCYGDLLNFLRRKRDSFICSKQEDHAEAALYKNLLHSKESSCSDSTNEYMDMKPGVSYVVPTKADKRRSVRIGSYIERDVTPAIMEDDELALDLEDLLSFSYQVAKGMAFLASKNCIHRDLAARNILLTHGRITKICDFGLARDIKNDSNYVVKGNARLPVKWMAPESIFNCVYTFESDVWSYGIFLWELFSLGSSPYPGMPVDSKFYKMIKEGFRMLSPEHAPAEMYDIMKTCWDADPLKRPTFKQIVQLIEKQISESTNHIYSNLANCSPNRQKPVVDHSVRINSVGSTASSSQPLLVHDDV
Sequence of c-Kit (D816H) (P10721 26-976 D816H): as the sequence (P10721 26-976) above, with D791H counted along it
Sequence of c-Kit (V560G) (P10721 26-976 V560G): as the sequence (P10721 26-976) above, with V535G counted along it
Sequence of c-Kit (V654A) (P10721 26-976 V654A): as the sequence (P10721 26-976) above, with V629A counted along it
Sequence of c-Kit (D816V) (P10721 26-976 D816V): as the sequence (P10721 26-976) above, with D791V counted along it
Sequence of c-Kit (T670I) (P10721 26-976 T670I): as the sequence (P10721 26-976) above, with T645I counted along it

As for `Cc1ccc(NC(=O)c2ccc3c(c2)CCC3N2CCN(C)CC2)cc1Nc1nccc(-c2cccnc2)n1` (stereo not shown) [EXAMPLE 1, 1-(4-methylpiperazin-1-yl)-N-(4-methyl-3-[(4-pyridin-3-ylpyrimidin-2-yl)amino]phenyl)-2,3-dihydro-1H-inden-5-carboxamide], the half-maximal inhibitory concentration (IC50) came to 22 nM at c-Kit [1] and 17 nM at PDGFR (Homo sapiens).

Regarding `Cc1ccc(NC(=O)c2ccc3c(c2)CCC3N2CCN(C(=O)OC(C)(C)C)CC2)cc1Nc1nccc(-c2cccnc2)n1` (stereo not shown) [EXAMPLE 2, tert-butyl 4-{5-[({4-methyl-3-[(4-pyridin-3-ylpyrimidin-2-yl)amino]phenyl}amino)carbonyl)-2,3-dihydro-1-H-inden-1-yl}piperazin-1-carboxylate], the concentration for half-maximal inhibition (IC50) stood at 1190 nM on c-Kit [1] and 233 nM on PDGFR (Homo sapiens).

On to `Cc1ccc(NC(=O)c2ccc3c(c2)CCC3N2CCNCC2)cc1Nc1nccc(-c2cccnc2)n1` (stereo not shown) [EXAMPLE 3, N-(4-methyl-3-[(4-pyridin-3-ylpyrimidin-2-yl)amino]phenyl)-1-piperazin-1-yl-2,3-dihydro-1H-indene-5-carboxamide], for which the IC50 at c-Kit [1] is 16 nM.

In the case of `Cc1ccc(NC(=O)c2ccc3c(c2)CCC3N2CCN(C(C)C)CC2)cc1Nc1nccc(-c2cccnc2)n1` (stereo not shown) [EXAMPLE 5, 1-(4-isopropylpiperazin-1-yl)-N-(4-methyl-3-[(4-pyridin-3-ylpyrimidin-2-yl)amino]phenyl)-2,3-dihydro-1H-indene-5-carboxamide], the IC50 at c-Kit [1] turned out to be 23 nM; on PDGFR (Homo sapiens), 18 nM.

Regarding `Cc1ccc(NC(=O)c2ccc3c(c2)CCC3N2CCN(CCO)CC2)cc1Nc1nccc(-c2cccnc2)n1` (stereo not shown) [EXAMPLE 6], the IC50 was 32 nM on c-Kit [1] and 20 nM on PDGFR (Homo sapiens).

For the compound `CC(=O)N1CCN(C2CCc3cc(C(=O)Nc4ccc(C)c(Nc5nccc(-c6cccnc6)n5)c4)ccc32)CC1` (stereo not shown) [EXAMPLE 7, 1-[4-acetylpiperazin-1-yl)-N-(4-methyl-3-[(4-pyridin-3-ylpyrimidin-2-yl)amino]phenyl)-2,3-dihydro-1H-indene-5-carboxamide], the concentration for half-maximal inhibition (IC50) on c-Kit [1] was determined as 529 nM; at PDGFR (Homo sapiens), 41 nM.

As for `Cc1ccc(NC(=O)c2ccc3c(c2)CCC3N2CCN(C)CC2)cc1Nc1nccc(-c2cncnc2)n1` (stereo not shown) [EXAMPLE 8, N-[3-(4,5′-bipyrimidine-2-ylamino)-4-methylphenyl]-1-(4-methylpiperazin-1-yl)-2,3-dihydro-1H-indene-5-carboxamide], the values for the IC50 at c-Kit [1] and on PDGFR (Homo sapiens) were 32 nM and 22 nM, respectively.

Regarding `Cc1ccc(NC(=O)c2ccc3c(c2)CCC3N2CC[C@H](N(C)C)C2)cc1Nc1nccc(-c2cccnc2)n1` (stereo partly drawn) [EXAMPLE 9, 1-[(3S)-3-(dimethylamino)pyrrolidin-1-yl]-N-{4-methyl-3-[(4-pyridin-3-ylpyrimidin-2-yl)amino]phenyl}-2,3-dihydro-1H-indene-5-carboxamide], the IC50 amounted to 51 nM at c-Kit [1] and 15 nM at PDGFR (Homo sapiens).

Regarding `Cc1ccc(NC(=O)c2ccc3c(c2)CC[C@@H]3N2CCN(C)CC2)cc1Nc1nccc(-c2cccnc2)n1` [EXAMPLE 11, (1S)-1-(4-methylpiperazin-1-yl)-N-(4-methyl-3-[(4-pyridin-3-ylpyrimidin-2-yl)amino]phenyl)-2,3-dihydro-1H-indene-5-carboxamide], the concentration for half-maximal inhibition (IC50) stood at 8.5 nM on c-Kit [1]; 9.6 nM at PDGFR (Homo sapiens); 132 nM at c-Kit [2]; 83.6 nM on c-Kit (D816H); 1740 nM on c-Kit (D816V); 2060 nM on c-Kit (T670I). The IC50 on c-Kit (V560G) was found to be 1.77 nM; on c-Kit (V654A) it was 969 nM; in [3], 3.2 nM.

On to `Cc1ccc(NC(=O)c2ccc3c(c2)CC[C@H]3N2CCN(C)CC2)cc1Nc1nccc(-c2cccnc2)n1` [EXAMPLE 12, (1R)-1-(4-methylpiperazin-1-yl)-N-(4-methyl-3-[(4-pyridin-3-ylpyrimidin-2-yl)amino]phenyl)-2,3-dihydro-1H-indene-5-carboxamide], for which the concentration for half-maximal inhibition (IC50) on c-Kit [1] was 2250 nM; on PDGFR (Homo sapiens) it was 53 nM; in experiment [3], 208 nM.

In the case of `Cc1ccc(NC(=O)c2ccc3c(c2)CC[C@@H]3N2CCN(C)CC2)cc1Nc1nccc(-c2cncnc2)n1` [EXAMPLE 13, (1S)—N-[3-(4,5′-bipyrimidin-2-ylamino)-4-methylphenyl]-1-(4-methylpiperazin-1-yl)-2,3-dihydro-1H-indene-5-carboxamide], the IC50 came out at 15 nM on c-Kit [1], 13 nM on PDGFR (Homo sapiens) and 2.2 nM in experiment [3].

For `Cc1ccc(NC(=O)c2ccc3c(c2)CC[C@H]3N2CCN(C)CC2)cc1Nc1nccc(-c2cncnc2)n1` [EXAMPLE 14, (1R)—N-[3-(4,5′-bipyrimidin-2-ylamino)-4-methylphenyl]-1-(4-methylpiperazin-1-yl)-2,3-dihydro-1H-indene-5-carboxamide], the IC50 on c-Kit [1] worked out at 2260 nM; on PDGFR (Homo sapiens) it was 65 nM.

As for `Cc1ccc(NC(=O)c2ccc3c(c2)CC[C@@H]3N2CCN(C)CC2)cc1Nc1nccc(-c2ccncc2)n1` [EXAMPLE 15, (1S)-1-(4-methylpiperazin-1-yl)-N-(4-methyl-3-[(4-pyridin-4-ylpyrimidin-2-yl)amino]phenyl)-2,3-dihydro-1H-indene-5-carboxamide], the results for the IC50 (at c-Kit [1]; on PDGFR (Homo sapiens); in [3]) were 526 nM, 24 nM and 35 nM, respectively.

As for `Cc1ccc(NC(=O)c2ccc3c(c2)CC[C@@H]3N2CCN(C)CC2)cc1Nc1nccc(-c2cccnc2)n1` [EXAMPLE 16, (1S)-1-(4-methylpiperazin-1-yl)-N-(4-methyl-3-[(4-pyridin-3-ylpyrimidin-2-yl)amino]phenyl)-2,3-dihydro-1H-indene-5-carboxamide sulfate], the concentration for half-maximal inhibition (IC50) is 0.25 nM in experiment [4]; 0.024 nM in experiment [5] (Homo sapiens, KU812); 0.085 nM in experiment [6] (Homo sapiens, MEG-01); 11.2 nM in [7]; 39.6 nM in experiment [8] (Homo sapiens, SUP-B15).

As to `Cc1cn(-c2cc(NC(=O)c3ccc(C)c(Nc4nccc(-c5cccnc5)n4)c3)cc(C(F)(F)F)c2)cn1` [Nilotinib], the IC50 stood at 6.26 nM in experiment [4]; 2.1 nM in experiment [5] (Homo sapiens, KU812); 1.65 nM in experiment [6] (Homo sapiens, MEG-01); 22.3 nM in [7]; 135 nM in experiment [8] (Homo sapiens, SUP-B15).

On to `CN[C@@H]1C[C@H]2O[C@@](C)([C@@H]1OC)n1c3ccccc3c3c4c(c5c6ccccc6n2c5c31)C(=O)NC4` [Staurosporine], for which the IC50 in [5] is 9.57 nM; in [6] it was 8.97 nM; in experiment [8], 6.84 nM; in experiment [9] it was 139 nM.
